Experimental data: PMC9694334, “Synthesis and Biological Evaluation of a Fused Structure of Indolizine and Pyrrolo[1,2-c]pyrimidine: Identification of Its Potent Anticancer Activity against Liver Cancer Cells” (Pharmaceuticals, 2022)

Key:
Format in all cases: cell-based
HepG2 cells [1] = experiment: Cell viability assay (MTS) in HepG2 cells; details: Homo sapiens, MTS, mean, n = 5, 72 h for 5r (Figure 2)
Method: (§1) HepG2, Huh7, H1299, HT29, AGS and A549 cells were purchased from the Korean Cell Line Bank (Seoul, Korea) and HaCaT cells were obtained from Prof. Sohee Kwon (Yonsei University, Korea). Liver cancer cells (HepG2), human keratinocyte cells (HaCaT), and lung cancer cells (A549) were grown in DMEM high-glucose medium, liver cancer cells (Huh7) and non-small cell lung cancer cells (H1299) were grown in RPMI 1640, and gastric cancer cells (AGS) were grown in Coon’s modified F12 medium. All media were supplemented with 10% FBS, 100 Units/mL penicillin, and 100 μg/mL streptomycin. All cells were incubated at 37 °C, 5% CO2 and 95% humidity.
(§2) Cell viability assay was conducted using Cell Titer 96® AQueous One Solution Cell proliferation Assay kit (Promega, Madison, WI, USA). Five cancer cells and HaCaT cells were plated in 96-well microplates with growth medium for 24 h. When cell confluency reached ~30%, cells were treated with DMSO (vehicle) and test compounds. The medium and test compounds were replaced every 24 h. To measure cell viability, the cells were incubated with MTS solution for 1 h. The absorbance was measured by using Infinite M200 microplate reader (Tecan, Männedorf, Switzerland) at 490 nm.
(§3) Figure 2 Effect of 5r on cell viability in HepG2, Huh7, AGS, H1299, A549, HaCaT, NIH3T3, and HEK293T cells. (A–H) HepG2, Huh7, AGS, H1299, A549, HaCaT, NIH3T3, and HEK293T cells were cultured with 5r at the indicated concentrations for 72 h, and medium was replaced every 24 h with freshly added 5r. Cell viability was measured by MTS analysis (mean ± S.D., n = 5). * p < 0.05, ** p < 0.01, *** p < 0.001.

Huh7 cells [2] = experiment: Cell viability assay (MTS) in Huh7 cells; details: Homo sapiens, Huh-7, mean, n = 5, 72 h for 5r (Figure 2)
Method: as §1, §2, §3

NIH3T3 cells = experiment: Cell viability assay (MTS) in NIH3T3 cells; details: 72 h, Figure 2G
Method: as §2, §3

HepG2 cells [3] = experiment: In vitro wound-healing assay in HepG2 cells; details: Figure 3
Method: (§4) The suppressive effect of 5r on cell migration was assessed through in vitro wound-healing assay. HepG2 and Huh7 cells were grown to approximately 100% confluence to form a monolayer in a 96-well microplate. Wounds were formed through 96-well wound maker (Essen BioScience, Ann Arbor, MI, USA). Then, growth medium was removed and washed out twice with phosphate-buffered saline (PBS) and incubated with 200 μL of DMEM and RPMI 1640 medium containing 5r or vehicle (DMSO). Images of the wound area were taken by using IncuCyte ZOOM (Essen BioScience, Ann Arbor MI, USA), and the percentage of wound closure was measured by using IncuCyte software.
(§5) Figure 3 Inhibitory effect of 5r on cell migration in HepG2 and Huh7 cells. (A,B) In vitro wound-healing assay was performed in HepG2 and Huh7 cells (mean ± S.D., n = 3). HepG2 and Huh7 cells were treated with the indicated concentrations of 5r, and time-lapse images were acquired every 2 h after wound infliction. (C,D) Representative images were taken at 0, 48, or 72 h following administration of 5r at the indicated concentrations.

Huh7 cells [4] = experiment: In vitro wound-healing assay in Huh7 cells; details: Figure 3
Method: as §4, §5

caspase-3 = experiment: Caspase-3 activity assay in Huh7 cells; details: 3 µM 5r for 24 h, Figure 4B
Method: HepG2 and Huh7 cells were plated in 96-black-well plate to about 40% confluence, and then 5r was treated for 24 h. To assess activity of caspase-3, the growth medium was changed with 100 μL of PBS containing 1 μM caspase-3 substrate, NucView 488, and incubated at room temperature. After 20 min, 1 μM Hoechst 33342 was treated to stain the cells. Activity of caspase-3 was suppressed by Ac-DEVD-CHO, a selective caspase-3 inhibitor. FLUOstar Omega microplate reader (BMG Labtech, Ortenberg, Germany) was used to assess the fluorescence of NucView 488 and Hoechst, and Lionheart FX Automated Microscope (BioTek, Winooski, VT, USA) was used to acquire the fluorescence microscopy images.
Figure 4 Effect of 5r on activity of caspase-3 and cleavage of PARP in HepG2 and Huh7 cells. (A,B) HepG2 and Huh7 cells were incubated with 3 µM 5r for 24 h and then incubated with 1 µM caspase-3 substrate (green) and 1 µM Hoechst 33,342 (blue) for 20 min before image acquisition. (C,D) Cells were cultured with 5r at the indicated concentrations for 24 h and then 1 μM caspase-3 substrate was treated for 20 min. Caspase-3 was inhibited by 20 μM Ac-DEVD-CHO (mean ± S.D., n = 3). (E,F) Cells were cultured with 5r at the indicated concentrations for 24 h, and expression level of PARP, cleaved-PARP and β-actin were measured by Western blot analysis. […]

cleaved PARP = experiment: Western blot analysis of cleaved PARP in Huh7 cells; details: 24 h, Figure 4F,H
Method: For Western blot analysis, HepG2 and Huh7 cells were lysed with RIPA buffer (50 mM Tris-HCl, PH 7.4, 1% Nonidet P-40, 0.25% sodium deoxycholate, 150 mM NaCl, 1 mM EDTA, 1 mM Na3VO4, and protease inhibitor). Lysed samples were centrifuged at 13,000 RPM for 20 min at 4 °C to remove the cell debris, and equal amounts (60 μg protein/lane) of supernatant protein were divided by 4–12% Tris Glycine Precast Gel (KOMA BIOTECH, Seoul, Korea). Then, PVDF membranes (Millipore, Billerica, MA, USA) were used to transfer the separated proteins. Membrane blocking was performed by Tris-buffered saline with 0.1% Tween 20 (TBST) containing 5% bovine serum albumin (BSA) at room temperature for 50 min. The membranes were incubated with primary antibodies overnight at 4 °C with the indicated primary antibodies: anti-cleaved PARP (BD Biosciences) and anti-β-actin (Santa Cruz Biotechnology, Dallas, TX, USA). […] After 1 h, membranes were detected by using ECL Plus Western blotting detection system (GE Healthcare, Piscataway, NJ, USA).
Figure 4 Effect of 5r on activity of caspase-3 and cleavage of PARP in HepG2 and Huh7 cells. […] (E,F) Cells were cultured with 5r at the indicated concentrations for 24 h, and expression level of PARP, cleaved-PARP and β-actin were measured by Western blot analysis. […]

Huh7 cells [5] = experiment: Combination of 5r with gemcitabine, cell viability (MTS) in Huh7 cells; details: co-treatment with gemcitabine (0.3 μM), 72 h
Method: as §2
Figure 6 Combination effect of 5r and gemcitabine on cell viability in HepG2 and Huh7 cells. (A,B) HepG2 and Huh7 cells were cultured with the indicated concentrations of 5r and gemcitabine (0.3 μM) for 72 h, and medium was replaced every 24 h with freshly added 5r and gemcitabine. Cell viability was determined by MTS analysis (mean ± S.D., n = 5). ** p < 0.01, *** p < 0.001.

IC50 (HepG2 cells [1]): 0.22 µM
IC50 (Huh7 cells [2]): 0.1 µM
SMILES: N#Cc1c2c3cccn3c(-c3ccccc3O)nc2n2ccccc12 [Compound 5r, 5-(2-Hydroxyphenyl)pyrrolo[1′,2′:1,6]pyrimido[5,4-b]indolizine-12-carbonitrile]
Effect on cell viability in non-cancerous NIH3T3 cells (NIH3T3 cells): weakly decreased cell viability
Effect on cell migration (wound closure) in HepG2 cells (HepG2 cells [3]): significantly inhibited cell migration in a dose-dependent manner
Effect on cell migration (wound closure) in Huh7 cells (Huh7 cells [4]): significantly inhibited cell migration in a dose-dependent manner
Caspase-3 activity in Huh7 cells (caspase-3): potently increased caspase-3 activity
Expression level of cleaved PARP in Huh7 cells (cleaved PARP): increased the expression level of cleaved PARP in a dose-dependent manner
Combination effect with gemcitabine on cell viability in Huh7 cells (Huh7 cells [5]): additional effect rather than a synergistic effect
